Results as given in US20070259965A1, “Acyclic 1,3-Diamine And Uses Therefor” (SmithKline Beecham Corporation, priority 2004, published 2007).

How the values were obtained:
TRPV4 channel receptor = target: T1, TRPV4 channel receptor (Homo sapiens, UniProt Q9HBA0); experiment: FLIPR assay using TRPV4 expressing HEK cells; assay type: cell-based; conditions: FLIPR method; pEC50 = −log10(EC50 μM)
T1 construct: expressed in transfected cells; host or cells: HEK cells
Text: Other techniques used to measure TRPV4 channel receptor activation in chondrocytes include, but are not limited to: FLIPR assay, measuring a compound's capability to reduce the amount of ADAMTSs produced and/or released in response to a catabolic stimulus by a cell comprising a TRPV4 channel receptor; measuring a compound's capability to reduce the amount of MMPs produced and/or released in response to a catabolic stimulus by a cell comprising a TRPV4 channel receptor; measuring a compound's capability to effect the amount of nitric oxide (NO) produced in response to a catabolic stimulus by a cell comprising a TRPV4 channel receptor; and measuring a compound's capability to attenuate the inhibition of matrix synthesis in response to a catabolic stimulus by a cell comprising a TRPV4 channel receptor .
All exemplary compounds of the present invention were assessed using at least one of the biological assays presented above. Compounds presented in the Examples had pEC50 values between about 4.5 to about 7.0 as measured by Flex Station in using bovine articular cartilage and EC50 values of about 0.1 μM to about 30 μM as measured by FLIPR assay using TRPV4 expressing HEK cells.

TRPV4 channel receptors = target: T2, TRPV4 channel receptors (Bos taurus, UniProt A0A8F4X677); experiment: Ca2+ influx by Fura-2 fluorescence on a FlexStation in bovine articular chondrocytes; assay type: cell-based; conditions: Fura-2, FlexStation
T2 construct: obtained using this method in bovine articular chondrocytes; endogenous in cells; host or cells: bovine articular chondrocytes (primary)
T2 sequence (A0A8F4X677 1-871): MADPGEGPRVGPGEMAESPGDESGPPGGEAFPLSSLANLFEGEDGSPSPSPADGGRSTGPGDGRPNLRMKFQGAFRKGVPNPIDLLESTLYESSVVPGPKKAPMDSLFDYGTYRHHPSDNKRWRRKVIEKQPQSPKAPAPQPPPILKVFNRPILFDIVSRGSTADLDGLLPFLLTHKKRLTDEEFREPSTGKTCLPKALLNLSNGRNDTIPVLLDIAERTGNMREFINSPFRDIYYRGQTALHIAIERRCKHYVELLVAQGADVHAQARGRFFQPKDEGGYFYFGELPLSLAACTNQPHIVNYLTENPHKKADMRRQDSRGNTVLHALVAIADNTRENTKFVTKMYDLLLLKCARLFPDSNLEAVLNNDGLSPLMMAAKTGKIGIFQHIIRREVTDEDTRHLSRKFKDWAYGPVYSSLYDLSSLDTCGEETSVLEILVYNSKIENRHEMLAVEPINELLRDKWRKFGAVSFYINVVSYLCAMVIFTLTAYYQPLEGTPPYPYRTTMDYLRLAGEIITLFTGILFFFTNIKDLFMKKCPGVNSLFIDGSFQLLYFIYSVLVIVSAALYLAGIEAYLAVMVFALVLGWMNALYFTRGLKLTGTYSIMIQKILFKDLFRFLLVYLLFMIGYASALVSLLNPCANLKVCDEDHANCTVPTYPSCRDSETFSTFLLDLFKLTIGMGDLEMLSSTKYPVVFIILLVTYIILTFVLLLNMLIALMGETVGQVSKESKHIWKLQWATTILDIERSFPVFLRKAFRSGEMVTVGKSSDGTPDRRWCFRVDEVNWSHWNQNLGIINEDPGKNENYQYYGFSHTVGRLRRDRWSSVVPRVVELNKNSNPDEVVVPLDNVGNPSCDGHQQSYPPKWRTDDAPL
Text: Ca^2+influx mediated through TRPV4 channel receptors can be measured using articular chondrocytes from such species as, but not limited to, human, rat, canine, rabbit, monkey, and bovine, using standard techniques in the art such as, but not limited to, Fura-2 (Invitrogen/Molecular Probes, Eugene, Oreg.) fluorescence using a FlexStation (manufactured by Molecular Devices, Sunnyvale, Calif.). Table 1 lists biological data for several representative compounds obtained using this method in bovine articular chondrocytes.

T1 sequence (Q9HBA0 whole entry): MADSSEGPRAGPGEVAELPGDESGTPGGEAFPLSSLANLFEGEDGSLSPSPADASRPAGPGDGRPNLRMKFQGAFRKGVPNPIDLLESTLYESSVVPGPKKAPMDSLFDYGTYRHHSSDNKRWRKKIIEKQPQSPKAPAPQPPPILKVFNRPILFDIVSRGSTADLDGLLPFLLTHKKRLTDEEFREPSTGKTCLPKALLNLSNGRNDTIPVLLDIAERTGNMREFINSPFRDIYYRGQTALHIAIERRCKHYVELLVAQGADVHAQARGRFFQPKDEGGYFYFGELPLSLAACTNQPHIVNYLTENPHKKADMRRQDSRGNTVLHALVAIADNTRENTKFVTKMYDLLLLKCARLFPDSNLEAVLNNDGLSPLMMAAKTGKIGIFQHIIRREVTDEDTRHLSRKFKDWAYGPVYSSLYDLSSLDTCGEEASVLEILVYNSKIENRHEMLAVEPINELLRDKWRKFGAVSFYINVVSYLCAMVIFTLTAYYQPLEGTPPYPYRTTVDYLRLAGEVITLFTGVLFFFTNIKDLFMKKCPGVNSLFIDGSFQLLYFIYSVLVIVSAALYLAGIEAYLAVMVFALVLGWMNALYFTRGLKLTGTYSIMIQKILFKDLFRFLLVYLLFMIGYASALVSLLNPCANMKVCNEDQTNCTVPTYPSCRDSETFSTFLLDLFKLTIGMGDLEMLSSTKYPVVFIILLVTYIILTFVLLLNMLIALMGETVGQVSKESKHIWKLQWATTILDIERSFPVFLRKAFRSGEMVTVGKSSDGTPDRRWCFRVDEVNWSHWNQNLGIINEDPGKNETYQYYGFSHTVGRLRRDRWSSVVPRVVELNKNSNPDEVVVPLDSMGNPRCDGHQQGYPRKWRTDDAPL

Compound | EC50 (TRPV4 channel receptor) | EC50 (TRPV4 channel receptors)
CC(C)C[C@H](NC(=O)c1cc2ccccc2s1)C(=O)NCCCN(C)S(=O)(=O)c1ccc(F)cc1Cl [Example 6, N-{(1S)-1-[({3-[[(2-chloro-4-fluorophenyl)sulfonyl](methyl)amino]propyl}amino)carbonyl]-3-methylbutyl}-1-benzothiophene-2-carboxamide] | 0.1 to 0.794 µM | 0.14 to 1 µM
CC(C)C[C@H](NC(=O)c1cc2ccccc2s1)C(=O)NCCCN(C)S(=O)(=O)c1sccc1C#N [Example 13, N-{(1S)-1-[({3-[[(3-cyano-2-thienyl)sulfonyl](methyl)amino]propyl}amino)carbonyl]-3-methylbutyl}-1-benzothiophene-2-carboxamide] | – | 1.01 to 10 µM
CC(C)C[C@H](NC(=O)c1cc2ccccc2s1)C(=O)NCCCN(C)S(=O)(=O)c1c(Cl)cc(Cl)cc1Cl [Example 17, N-((1S)-3-methyl-1-{[(3-{methyl[(2,4,6-trichlorophenyl)sulfonyl]amino}propyl)amino]carbonyl}butyl)-1-benzothiophene-2-carboxamide] | 1 to 7.94 µM | –

The next lines start with the values.

EC50 (TRPV4 channel receptor) | EC50 (TRPV4 channel receptors) | Compound
10 to 20 µM | – | CC(C)C[C@H](NC(=O)c1cn2nc(Cl)ccc2n1)C(=O)NCCCN(C)S(=O)(=O)c1ccccc1C#N [Example 71, 6-chloro-N-{(1S)-1-[({3-[[(2-cyanophenyl)sulfonyl](methyl)amino]propyl}amino)carbonyl]-3-methylbutyl}imidazo[1,2-b]pyridazine-2-carboxamide]
– | 10 to 30 µM | Cc1c(C(=O)N[C@@H](CC(C)C)C(=O)NCCCN(C)S(=O)(=O)c2ccccc2C#N)oc2cccnc12 [Example 73, N-{(1S)-1-[({3-[[(2-cyanophenyl)sulfonyl](methyl)amino]propyl}amino)carbonyl]-3-methylbutyl}-3-methylfuro[3,2-b]pyridine-2-carboxamide]
